Laboratory results from patent US20090042726A1, “Novel Herbicides” (SYNGENTA LIMITED, priority 2005, published 2009).

Test system: Monocotyledonous and dicotyledonous test plants
Test: Herbicidal action, application pre-emergence (Example B1)
Format: in vivo
Set-up: key: 10=total damage to plant; 0=no damage to plant
Settings: 1000 g/ha, evaluated after 9 or 13 days; for AGSTE herbicidal action (damage score 0-10): Agrostis-tenius; for AMARE herbicidal action (damage score 0-10): Amaranthus retroflexus; for DIGSA herbicidal action (damage score 0-10): Digitaria sanguinalis; for POATR herbicidal action (damage score 0-10): Poa trivialis; for SETIT herbicidal action (damage score 0-10): Setaria italica
Protocol: Monocotyledonous and dicotyledonous test plants were sown in sterilised standard soil in seed trays each having 96 cells. After one day (pre-emergence) under controlled conditions in a climatic chamber (cultivation at 23/17° C., day/night; 13 hours light; 50-60% humidity; after application at 24/19° C., day/night), the plants were treated with an aqueous spray solution of 1000 mg/l of the active ingredient used (including 10% DMSO as solvent). The plants were grown on in the climatic chamber until the test was evaluated (10=total damage to plant, 0=no damage to plant) after 9 or 13 days.

## CCn1ncc(CSC2=NOC(C)(C)C2F)n1 (stereo not drawn) [Compound No. 7.34]
  AGSTE herbicidal action (damage score 0-10): 9
  AMARE herbicidal action (damage score 0-10): 6
  DIGSA herbicidal action (damage score 0-10): 8
  POATR herbicidal action (damage score 0-10): 8

## CC(C)n1nc(C[S+]([O-])C2=NOC(C)(C)C2F)c(C(F)(F)F)n1 (single isomer, unassigned) [7.25]
  AGSTE herbicidal action (damage score 0-10): 10
  AMARE herbicidal action (damage score 0-10): 9
  DIGSA herbicidal action (damage score 0-10): 9
  POATR herbicidal action (damage score 0-10): 10

## Cc1nn(C)nc1CSC1=NOC(C)(C)C1F (stereo not drawn) [Compound No. 7.01]
  AGSTE herbicidal action (damage score 0-10): 10
  AMARE herbicidal action (damage score 0-10): 0
  DIGSA herbicidal action (damage score 0-10): 8
  POATR herbicidal action (damage score 0-10): 0
  SETIT herbicidal action (damage score 0-10): 8

## C=CCn1nc(CS(=O)(=O)C2=NOC(C)(C)C2F)c(C(F)(F)F)n1 (stereo not drawn) [7.10]
  AGSTE herbicidal action (damage score 0-10): 10
  AMARE herbicidal action (damage score 0-10): 10
  DIGSA herbicidal action (damage score 0-10): 10
  POATR herbicidal action (damage score 0-10): 10

## Cn1nc(OC(F)F)c(C[S+]([O-])C2=NOC(C)(C)C2F)c1C(F)(F)F (single isomer, unassigned) [2.30]
  AGSTE herbicidal action (damage score 0-10): 10
  AMARE herbicidal action (damage score 0-10): 9
  DIGSA herbicidal action (damage score 0-10): 10
  POATR herbicidal action (damage score 0-10): 9
  SETIT herbicidal action (damage score 0-10): 9

## CC(c1nn(C)cc1C(F)(F)F)S(=O)(=O)C1=NOC(C)(C)C1F (stereo not drawn) [4.04, 3-(1-(4-fluoro-5,5-dimethyl-4,5-dihydro-isoxazol-3-ylsulfonyl)-eth-1 yl)-1-methyl-4-trifluoromethyl-1H-pyrazole]
  AGSTE herbicidal action (damage score 0-10): 10
  AMARE herbicidal action (damage score 0-10): 9
  DIGSA herbicidal action (damage score 0-10): 9
  POATR herbicidal action (damage score 0-10): 8
  SETIT herbicidal action (damage score 0-10): 9

## CC1(C)ON=C(S(=O)(=O)Cc2nn(C3CCCC3)nc2C(F)(F)F)C1F (stereo not drawn) [7.14]
  AGSTE herbicidal action (damage score 0-10): 10
  AMARE herbicidal action (damage score 0-10): 8
  DIGSA herbicidal action (damage score 0-10): 9
  POATR herbicidal action (damage score 0-10): 8

## COc1cc(C[S+]([O-])C2=NOC(C)(C)C2F)n(C)n1 (mixture of isomers) [6.12]
  AGSTE herbicidal action (damage score 0-10): 10
  AMARE herbicidal action (damage score 0-10): 10
  DIGSA herbicidal action (damage score 0-10): 10
  POATR herbicidal action (damage score 0-10): 10

## Cn1nc(C(F)(F)F)c(CSC2=NOC(C)(C)C2F)c1F (stereo not drawn) [Compound No. 2.54]
  AGSTE herbicidal action (damage score 0-10): 10
  AMARE herbicidal action (damage score 0-10): 9
  DIGSA herbicidal action (damage score 0-10): 6
  POATR herbicidal action (damage score 0-10): 10

## Cn1nc(C(F)(F)F)c(CS(=O)(=O)C2=NOC(C)(C)C2Br)c1OC(F)F (stereo not drawn) [Compound No. 2.06, 4-Bromo-3-(5-difluoromethoxy-1-methyl-3-trifluoromethyl-1H-pyrazol-4-ylmethylsulfonyl)-5,5-dimethyl-4,5-dihydro-isoxazole]
  AGSTE herbicidal action (damage score 0-10): 10
  AMARE herbicidal action (damage score 0-10): 7
  DIGSA herbicidal action (damage score 0-10): 8
  POATR herbicidal action (damage score 0-10): 9
  SETIT herbicidal action (damage score 0-10): 7

## Cn1nc(OCC(F)(F)F)c(C[S+]([O-])C2=NOC(C)(C)C2F)c1C(F)(F)F (single isomer, unassigned) [2.43]
  AGSTE herbicidal action (damage score 0-10): 0
  AMARE herbicidal action (damage score 0-10): 8
  DIGSA herbicidal action (damage score 0-10): 9
  POATR herbicidal action (damage score 0-10): 10
  SETIT herbicidal action (damage score 0-10): 8

## COCCn1nc(C[S+]([O-])C2=NOC(C)(C)C2F)c(C(F)(F)F)n1 (mixture of isomers) [7.19]
  AGSTE herbicidal action (damage score 0-10): 6
  AMARE herbicidal action (damage score 0-10): 10
  DIGSA herbicidal action (damage score 0-10): 9
  POATR herbicidal action (damage score 0-10): 10

## CC1(C)ON=C([S+]([O-])Cc2c(F)cccc2F)C1F (single isomer, unassigned) [1.15]
  AGSTE herbicidal action (damage score 0-10): 10
  AMARE herbicidal action (damage score 0-10): 9
  DIGSA herbicidal action (damage score 0-10): 9
  POATR herbicidal action (damage score 0-10): 10
  SETIT herbicidal action (damage score 0-10): 9

## CC(C)n1nc(CS(=O)(=O)C2=NOC(C)(C)C2F)c(C(F)(F)F)n1 (stereo not drawn) [7.27]
  AGSTE herbicidal action (damage score 0-10): 9
  AMARE herbicidal action (damage score 0-10): 1
  DIGSA herbicidal action (damage score 0-10): 10
  POATR herbicidal action (damage score 0-10): 0

## Cn1cc(C(F)(F)F)c(C[S+]([O-])C2=NOC(C)(C)C2F)n1 (mixture of isomers) [4.02]
  AGSTE herbicidal action (damage score 0-10): 10
  AMARE herbicidal action (damage score 0-10): 9
  DIGSA herbicidal action (damage score 0-10): 9
  POATR herbicidal action (damage score 0-10): 10
  SETIT herbicidal action (damage score 0-10): 9

## Cn1nc(OC(F)F)cc1CS(=O)(=O)C1=NOC(C)(C)C1F (stereo not drawn) [6.10]
  AGSTE herbicidal action (damage score 0-10): 10
  AMARE herbicidal action (damage score 0-10): 7
  DIGSA herbicidal action (damage score 0-10): 0
  POATR herbicidal action (damage score 0-10): 9

## Cn1ncc(C[S+]([O-])C2=NOC(C)(C)C2F)n1 (mixture of isomers) [7.22]
  AGSTE herbicidal action (damage score 0-10): 9
  AMARE herbicidal action (damage score 0-10): 0
  DIGSA herbicidal action (damage score 0-10): 8
  POATR herbicidal action (damage score 0-10): 9

## COc1cc(CS(=O)(=O)C2=NOC(C)(C)C2F)n(C)n1 (stereo not drawn) [6.13]
  AGSTE herbicidal action (damage score 0-10): 10
  AMARE herbicidal action (damage score 0-10): 10
  DIGSA herbicidal action (damage score 0-10): 9
  POATR herbicidal action (damage score 0-10): 10

## Cn1cc(C[S+]([O-])C2=NOC(C)(C)C2F)c(C(F)(F)F)n1 (mixture of isomers) [2.33]
  AGSTE herbicidal action (damage score 0-10): 10
  AMARE herbicidal action (damage score 0-10): 6
  DIGSA herbicidal action (damage score 0-10): 9
  POATR herbicidal action (damage score 0-10): 9
  SETIT herbicidal action (damage score 0-10): 9

## Cn1nc(C(F)(F)F)cc1CSC1=NOC(C)(C)C1F (stereo not drawn) [Compound No. 6.01]
  AGSTE herbicidal action (damage score 0-10): 9
  AMARE herbicidal action (damage score 0-10): 0
  DIGSA herbicidal action (damage score 0-10): 8
  POATR herbicidal action (damage score 0-10): 0

## Cn1nc(C[S+]([O-])C2=NOC(C)(C)C2F)c(C(F)(F)F)c1C#N (single isomer, unassigned) [4.08]
  AGSTE herbicidal action (damage score 0-10): 10
  AMARE herbicidal action (damage score 0-10): 5
  DIGSA herbicidal action (damage score 0-10): 9
  POATR herbicidal action (damage score 0-10): 8

## C=CCn1cc(C[S+]([O-])C2=NOC(C)(C)C2F)c(C(F)(F)F)n1 (mixture of isomers) [2.52]
  AGSTE herbicidal action (damage score 0-10): 10
  AMARE herbicidal action (damage score 0-10): 9
  DIGSA herbicidal action (damage score 0-10): 9
  POATR herbicidal action (damage score 0-10): 9

## Cn1nc(C(F)(F)F)c(C[S+]([O-])C2=NOC(C)(C)C2Br)c1OC(F)F (stereo not drawn) [Compound No. 2.05, 4-bromo-3-(5-difluoromethoxy-1-methyl-3-trifluoromethyl-1H-pyrazol-4-ylmethylsulfinyl)-5,5-dimethyl-4,5-dihydro-isoxazole]
  AGSTE herbicidal action (damage score 0-10): 9
  AMARE herbicidal action (damage score 0-10): 2
  DIGSA herbicidal action (damage score 0-10): 8
  POATR herbicidal action (damage score 0-10): 0
  SETIT herbicidal action (damage score 0-10): 9

## CCn1cc(CS(=O)(=O)C2=NOC(C)(C)C2F)c(C(F)(F)F)n1 (stereo not drawn) [2.47]
  AGSTE herbicidal action (damage score 0-10): 10
  AMARE herbicidal action (damage score 0-10): 10
  DIGSA herbicidal action (damage score 0-10): 9
  POATR herbicidal action (damage score 0-10): 10

## Cn1cc(C(F)(F)F)c(CSC2=NOC(C)(C)C2F)n1 (stereo not drawn) [4.01, 3-(4-fluoro-5,5-dimethyl-4,5-dihydro-isoxazol-3-ylsulfanyl-methyl)-1-methyl-4-trifluoromethyl-1H-pyrazole]
  AGSTE herbicidal action (damage score 0-10): 0
  AMARE herbicidal action (damage score 0-10): 8
  DIGSA herbicidal action (damage score 0-10): 9
  POATR herbicidal action (damage score 0-10): 0
  SETIT herbicidal action (damage score 0-10): 9

## CC1(C)ON=C(S(=O)(=O)Cc2cccnc2Cl)C1F (stereo not drawn) [3.06]
  AGSTE herbicidal action (damage score 0-10): 10
  AMARE herbicidal action (damage score 0-10): 8
  DIGSA herbicidal action (damage score 0-10): 0
  POATR herbicidal action (damage score 0-10): 10
